This note sets out measurements from patent publication US12358921B2, “Antiviral heterocyclic compounds” (priority 2022, dated 2025).

What all share (type): cell-based
Assay [1] deals with hMPV A2 TN/94-49. The assay can be described thus: HMPV antiviral assay Method 1 (LLC-MK2 cells, ATP-Lite). As to conditions: hMPV A2 TN/94-49, LLC-MK2 cells. The method, then:
In vitro HMPV antiviral activity was evaluated using the clinical isolate A2 strain TN 94-49 (obtained from Dr. John Williams, Vanderbilt University, Tennessee) and […] cells (ATCC #CCL-7), an immortalized kidney epithelial cell line from Macaca mulatta. Compounds were resuspended in dimethyl sulfoxide (DMSO) at 10 mM, serially diluted and added to a 384-well source plate. Subsequently, the compounds were diluted and transferred onto 384-well assay plates using the Echo-650 automated liquid handling system (Beckman Coulter, Indiana). The test compounds were assessed in duplicate at a top concentration of 2 μM followed by 2.5-fold serial dilutions to give a total of 10 concentration points. DMSO control wells were also included on the assay plates and were either infected or not, acting as positive and negative controls. A2 TN 94-49 virus infections were performed in-suspension with LLC-MK2 cells. The cells were washed twice with PBS and removed from the cell-culture flask with 0.25% trypsin-EDTA (Thermo Fisher Scientific, MA). The trypsin-EDTA was inactivated by resuspending in 2% fetal bovine serum (FBS) and OptiMEM (ThermoFisher Scientific, MA) containing 1% penicillin-streptomycin. Cells were pelleted by centrifuging for 5 minutes at 800 rpm, the supernatant was removed, and cells were re-suspended and washed in PBS plus 100 μg/mL CaCl2). This step was performed twice. Cells were then re-suspended in serum-free (SF)-OptiMEM containing 4 μg/mL TPCK-Trypsin (Sigma Aldrich, MO), 1% penicillin-streptomycin (ThermoFisher Scientific, MA) and 100 μg/mL CaCl2). Cells were counted and seeded at a density of 5,000 cells/well, 12.5 μL/well. Virus infections were done at a multiplicity of infection (MOI) of 0.005 with 12.5 μL added per well. Virus infections were performed in infection media which contained SF-OptiMEM, 100 μg/mL CaCl2) and 1% penicillin-streptomycin. HMPV viral stocks are suspended in infection media+5% glycerol, thus an equal volume of infection media+5% glycerol was added to uninfected wells to equalize the final % glycerol across all wells of the assay plate. The final concentration of TPCK-trypsin was 2 μg/mL. The assay plates were incubated at 37° C., 5% CO2 for 7 days. After 7 days incubation, 12.5 μL of ATP-Lite (PerkinElmer, MA) was added to each well and the raw luminescence values were determined using the Envision 2104 (Perkin Elmer, MA). The average of the raw luminescence values for the cells and virus only positive control wells was subtracted from all conditions tested and the percent cell health was determined by dividing these values by the average of the cells only negative control wells. EC50 values were then calculated by non-linear regression using a four-parameter curve logistic equation. The curve fit model employed was XLFit Dose Response One Site Model 200: y=(A+(B/(1+((x/C)^D)))), where A is the minimum y value, B is the maximum y value, C is the log EC50value, and D is the slope factor. Method 2: In Vitro HMPV Antiviral Activity was Evaluated Using the Clinical Isolate A2 Strain TN 94-49

Assay [2] relates to HUMAN RSV-A (“LONG” STRAIN). The experiment in a line: RSV-A assay (CPE, ATPlite) in Hep-2 cells. As to conditions: human respiratory syncytial virus, 120 h, MOI 0.1, 5-day incubation. In outline:
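Protection from RSV cytopathic effect read by ATP luminescence (ATPlite) after 5-day culture. Genotype A "Long" virus added at MOI 0.1 to Hep-2 monolayers at 8,000 cells/well, pre-dosed with duplicate 2-fold compound dilutions; controls include infected untreated and uninfected wells. EC50 values binned into ranges.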

Assay [3] deals with hMPV A2 TN/94-49. The assay can be described thus: HMPV antiviral assay Method 2 (LLC-MK2 cells with CP-100-356, ATP-Lite). As to conditions: hMPV A2 TN/94-49, LLC-MK2 cells, 4 μM CP-100-356, Method 2. In outline: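 The protective effect was measured after 7 days at 37 °C by ATP-Lite luminescence and expressed as % cell health relative to virus-only and cells-only wells, with EC50 from a four-parameter logistic. Cells were LLC-MK2 infected with strain A2 TN/94-49 (MOI 0.16) with final 2 μM CP-100-356 and 2 μg/mL TPCK-trypsin; 10 duplicate concentrations from 200 nM, 2.5-fold steps.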

Structures are written as SMILES. pEC50: −log10 of the molar value. A value given as a limit tells only on which side of the number the result lay.

For `COc1cc(C(=O)NC[C@](O)(c2cc3c(c(-c4cc(Cl)c(C)cc4F)n2)OC[C@]3(C)C(N)=O)C2CC2)cc2cn(C3CC3)nc12` [Example 51], the pEC50 in the assay with hMPV A2 TN/94-49 [1] is less than 6.30; in assay [2], more than 6.70.
Taken in the same sequence, the figures for `COc1cc(C(=O)NC[C@@](O)(c2ccccc2)c2cc3c(c(-c4cc(Cl)c(F)cc4F)n2)OC[C@]3(C)C(N)=O)cc2cc(Cl)c(C)nc12` [Example 159] were more than 6.30 and more than 6.70.
Taken in the same sequence, the figures for `COc1cc(C(=O)NC[C@@](O)(c2ccccc2)c2cc3c(c(-c4cc(C(F)F)c(F)cc4F)n2)OC[C@]3(C)C(N)=O)cc2cn(C3CC3)nc12` [Example 288] were more than 6.30 and more than 6.70.
`COc1cc(C(=O)NC[C@](O)(c2cc3c(c(-c4cccc(S(F)(F)(F)(F)F)c4)n2)OC[C@]3(C)C(N)=O)C(F)(F)F)cc2cn(C3CC3)nc12` [Example 54]: the results for the pEC50 (with hMPV A2 TN/94-49 [1]; in assay [2]) were less than 6.30 and more than 6.70, respectively.
As to `C[C@]1(C(N)=O)COc2c1cc([C@@](O)(CNC(=O)c1ccc3nc(C(F)(F)F)oc3c1)c1ccccc1)nc2-c1cc(Cl)c(F)cc1F` [Example 82], the pEC50 in the assay on hMPV A2 TN/94-49 [1] is less than 6.30.
As for `COc1cc(C(=O)NC[C@@](O)(c2ccsc2)c2cc3c(c(-c4cc(Cl)c(F)cc4F)n2)OC[C@]3(C)C(N)=O)cc2cn(C3(F)CC3)nc12` [Example 175], the pEC50 is more than 6.30 in the assay on hMPV A2 TN/94-49 [1] and more than 6.70 in assay [2].
The matching figures for `COc1cc(C(=O)NC[C@](O)(c2cc3c(c(-c4cc(F)c(F)cc4F)n2)OC[C@]3(C)C(N)=O)C2CC(F)(F)C2)cc2cn(C3CC3)nc12` [Example 31]: more than 6.30 and more than 6.70.
In the case of `COc1cc(C(=O)NC[C@](O)(c2cc3c(c(-c4cc(Cl)c(F)cc4F)n2)OC[C@]3(C)C(N)=O)c2ccccc2F)cc2cn(C(F)F)nc12` [Example 138], the pEC50 was more than 6.30 in the assay on hMPV A2 TN/94-49 [1] and more than 6.70 in assay [2].
Regarding `COc1cc(C(=O)NC[C@](O)(c2cc3c(c(-c4cc(C(F)(F)F)ccc4C)n2)OC[C@]3(C)C(N)=O)C2CC2)cc2cn(C3CC3)nc12` [Example 53], the pEC50 in the assay on hMPV A2 TN/94-49 [1] was more than 6.30; in assay [2] it was more than 6.70.
Consider `COc1cc(C(=O)NC[C@](O)(c2cc3c(c(-c4ccc(C(F)(F)F)c(C)c4)n2)OC[C@]3(C)C(N)=O)C2CC2)cc2cn(C3CC3)nc12` [Example 55], for which the pEC50 in the assay with hMPV A2 TN/94-49 [1] is less than 6.30; in assay [2] it was more than 6.70.
For the compound `COc1cc(C(=O)NC[C@](O)(c2cc3c(c(-c4cc(F)c(F)c(F)c4Cl)n2)OC[C@]3(C)C(N)=O)C(F)(F)F)cc2cn(C3CC3)nc12` [Example 59], the results for the pEC50 (in the assay with hMPV A2 TN/94-49 [1]; in assay [2]) were more than 6.30 and more than 6.70, respectively.
Taken in the same sequence, the figures for `COc1cc(C(=O)NC[C@@](O)(c2ccc(F)cc2)c2cc3c(c(-c4cc(Cl)c(F)cc4F)n2)OC[C@]3(C)C(N)=O)cc2cn(C(F)F)nc12` [Example 13] were more than 6.30 and more than 6.70.
Taken in the same sequence, the figures for `[2H]C([2H])([2H])c1nc2c(OC)cc(C(=O)NC[C@](O)(c3cc4c(c(-c5cc(F)c(F)cc5F)n3)OC[C@]4(C)C(N)=O)C3CC3)cc2cc1Br` [Example 7] were more than 6.30 and more than 6.70.
Regarding `C[C@]1(C(N)=O)COc2c1cc([C@@](O)(CNC(=O)c1cc(OC(F)F)c3nn(C4CC4)cc3c1)C1CC1)nc2-c1cc(F)c(F)cc1F` [Example 6], the pEC50 in the assay on hMPV A2 TN/94-49 [1] was more than 6.30; in assay [2], more than 6.70.
Taken in the same sequence, the figures for `Cc1nc2c(OC(F)F)cc(C(=O)NC[C@@](O)(c3cccc(F)c3)c3cc4c(c(-c5cc(Cl)c(F)cc5F)n3)OC[C@]4(C)C(N)=O)cc2cc1Br` [Example 135] were less than 6.30 and more than 6.70.
Taken in the same sequence, the figures for `COc1cc(C(=O)NC[C@](O)(c2cc3c(c(-c4ccc(C)c(C(F)(F)F)c4)n2)OC[C@]3(C)C(N)=O)C2CC2)cc2cn(C3CC3)nc12` [Example 56] were less than 6.30 and more than 6.70.
Take `[2H]C([2H])([2H])c1nc2c(OC(F)F)cc(C(=O)NC[C@](O)(c3cc4c(c(-c5cc(Cl)c(F)cc5F)n3)OC[C@]4(C)C(N)=O)C3CC3)cc2cc1Br` [Example 11]: the pEC50 is less than 6.30 with hMPV A2 TN/94-49 [1] and more than 6.70 in assay [2].
Taken in the same sequence, the figures for `[2H]C([2H])([2H])c1nc2c(OC)cc(C(=O)NC[C@](O)(c3cc4c(c(-c5cc(Cl)c(F)cc5F)n3)OC[C@]4(C)C(N)=O)C3CC3)cc2s1` [Example 10] were more than 6.30 and more than 6.70.
On to `[2H]C([2H])([2H])c1nc2c(OC)cc(C(=O)NC[C@](O)(c3cc4c(c(-c5ccc(F)c(Cl)c5Cl)n3)OC[C@]4(C)C(N)=O)C3CC3)cc2cc1Br` [Example 24], for which the pEC50 is more than 6.30 in the assay on hMPV A2 TN/94-49 [1] and more than 6.70 in assay [2].
The matching figures for `COc1cc(C(=O)NC[C@@](O)(c2ccccc2)c2cc3c(c(-c4cccc(Cl)c4Cl)n2)OC[C@]3(C)C(N)=O)cc2cn(C(F)F)nc12` [Example 261]: more than 6.30 and more than 6.70.
The matching figures for `COc1cc(C(=O)NC[C@](O)(c2cc3c(c(-c4cc(Cl)c(F)cc4F)n2)OC[C@]3(C)C(N)=O)c2ccccc2F)cc2cc(C3CC3)nn12` [Example 137]: more than 6.30 and more than 6.70.
Turning to `COc1cc(C(=O)NCC(O)(c2cc3c(c(-c4cc(Cl)c(F)cc4F)n2)OC[C@]3(C)C(N)=O)c2cc3ccccc3s2)cc2cn(C3CC3)nc12` (stereo partly drawn) [Example 469], the pEC50 in the assay with hMPV A2 TN/94-49 [1] is less than 6.30; in assay [2], more than 6.70.
On to `COc1cc(C(=O)NC[C@@](O)(c2cc3c(c(-c4cc(Cl)c(F)cc4F)n2)OC[C@]3(C)C(N)=O)c2cc(C)cs2)cc2cn(C3CC3)nc12` [Example 466], for which, in the assay with hMPV A2 TN/94-49 [1], the negative-log EC50 (pEC50) was less than 6.30.
`COc1cc(C(=O)NC[C@@](O)(c2ccccc2)c2cc3c(c(-c4cc(Cl)c(F)cc4F)n2)OC[C@]3(C)C(N)=O)cc2oc(C)nc12` [Example 84] gave a pEC50 in the assay with hMPV A2 TN/94-49 [1] of more than 6.30.
On the same count and under the same terms, as for `COc1cc(C(=O)NC[C@@](O)(c2ccccc2)c2cc3c(c(-c4cc(Cl)c(F)cc4F)n2)OC[C@]3(C)C(N)=O)cc2ccc(C)nc12` [Example 79], the figure is more than 6.30.
Turning to `COc1cc(C(=O)NC[C@@](O)(c2ccccc2)c2cc3c(c(-c4cccc(F)c4Cl)n2)OC[C@]3(C)C(N)=O)cc2cn(C3(F)CC3)nc12` [Example 368], the pEC50 (in assay [2]; in the assay on hMPV A2 TN/94-49 [3]) was more than 6.70 in each case.
`COc1cc(C(=O)NC[C@@](O)(c2ccccc2)c2cc3c(c(-c4cccc(Cl)c4F)n2)OC[C@]3(C)C(N)=O)cc2cn(C3(F)CC3)nc12` [Example 369]: the pEC50 (in assay [2]; in the assay on hMPV A2 TN/94-49 [3]) was more than 6.70 each time.
For the compound `COc1cc(C(=O)NC[C@@](O)(c2cnccn2)c2cc3c(c(-c4cc(Cl)c(F)cc4F)n2)OC[C@]3(C)C(N)=O)cc2cn(C3CC3)nc12` [Example 487], the pEC50 (in assay [2]; with hMPV A2 TN/94-49 [3]) was more than 6.70 each time.
In the case of `COc1cc(C(=O)NC[C@@](O)(c2cccc(F)n2)c2cc3c(c(-c4cc(Cl)c(F)cc4F)n2)OC[C@]3(C)C(N)=O)cn2cc(C3CC3)nc12` [Example 154], the pEC50 (in assay [2]; in the assay on hMPV A2 TN/94-49 [3]) was more than 6.70 each time.
For `COc1cc(C(=O)NC[C@@](O)(c2cccc(F)n2)c2cc3c(c(-c4cc(Cl)c(F)cc4F)n2)OC[C@]3(C)C(N)=O)cc2cn(C(F)F)nc12` [Example 205], the pEC50 (in assay [2]; with hMPV A2 TN/94-49 [3]) was more than 6.70 each time.
Consider `COc1cc(C(=O)NC[C@@](O)(c2ccccc2)c2cc3c(c(-c4cc(Cl)c(F)cc4F)n2)OC[C@]3(C)C(N)=O)cc2cc(C(F)(F)F)cnc12` [Example 83], for which the pEC50 with hMPV A2 TN/94-49 [1] is more than 6.30.
